Laboratory results published in patent US20250281503A1, “DO3A-BASED ANTITHROMBOTIC AGENT OR HEMOLYTIC AGENT CONTAINING GADOLINIUM COMPLEX” (ETNOVA THERAPEUTICS CORP., priority 2022, published 2025).

Test system: Rat platelets
Experiment: Platelet aggregation inhibition (4-channel platelet lumi-aggregometer)
Assay type: cell-based
Settings: compound 100 μM, compared to control (vehicle), FIG. 2
Procedure: In order to evaluate the platelet aggregation activity of MBP-11902 according to Present Example 1 of the present disclosure, the platelet aggregation was activated in rat plasma with platelet aggregation factors and agonists, thrombin, collagen, ADP (adenosine diphosphate), U46619 (thromboxane A2 agonist), and PMA (phorbol-12-myristate-13-acetate), and then, the rat plasma was pretreated with vehicle (distilled water) and various doses (100, 300, and 500 μM) of MBP-11902, and then a 4-channel platelet lumi-aggregometer (Chronolog Corp, Havertown, PA) was used to measure the value indicating the platelet aggregation level, and the results are shown in FIG. 1. […]
Rat platelets were placed in HEPES-Tyrode buffer at a concentration of 3×10^8 cells/mL and pretreated with the vehicle (distilled water) and various doses (100, 300, and 500 μM) of MBP-11902 at 37° C. for 15 minutes, and then activated with collagen, thrombin, ADP, U46619 (endoperoxide/thromboxane analogs), and PMA (PKC activator), which are known as agonists in the platelet aggregation system. The platelet aggregation was induced at 1,000 rpm in a platelet aggregation system (Chronolog Corp, Havertown, PA) at 37° C. and then, the platelet aggregation level was measured.

## O=C(O)c1cc(-c2ccc(F)cc2F)ccc1O [NSAID, Diflunisal]
Collagen 1 μg/mL
  platelet aggregation induced by collagen (comparative evaluation): significantly inhibit
Thrombin 0.05 U/ml
  platelet aggregation induced by thrombin (comparative evaluation): significantly inhibit
